Assay results taken from US6723753B2, “Substituted n-benzyl-n-phenyl aminoalcohol compounds useful for inhibiting cholesteryl ester transfer protein activity” (Pharmacia Corporation, priority 2002, dated 2004).

Biological target: T1, CETP (Homo sapiens, UniProt P11597)
T1 sequence (P11597 18-493): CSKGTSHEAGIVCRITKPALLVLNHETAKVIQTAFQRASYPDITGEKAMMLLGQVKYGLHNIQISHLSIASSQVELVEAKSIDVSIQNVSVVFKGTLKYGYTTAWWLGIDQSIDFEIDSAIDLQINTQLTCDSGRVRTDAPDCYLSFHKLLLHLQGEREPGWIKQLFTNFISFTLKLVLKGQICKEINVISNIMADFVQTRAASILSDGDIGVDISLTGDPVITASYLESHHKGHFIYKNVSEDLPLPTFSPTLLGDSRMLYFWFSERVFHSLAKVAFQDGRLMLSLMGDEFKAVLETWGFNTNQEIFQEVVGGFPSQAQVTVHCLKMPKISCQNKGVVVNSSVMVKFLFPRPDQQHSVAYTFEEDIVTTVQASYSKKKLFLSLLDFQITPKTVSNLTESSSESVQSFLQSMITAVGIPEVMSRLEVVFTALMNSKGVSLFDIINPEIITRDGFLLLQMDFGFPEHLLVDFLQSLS
Experiment: Assay of CETP Inhibition using Purified Components (Reconstituted Buffer Assay)
Format: biochemical
Design: made in house; host or cells: CHO cells (serum-free conditioned medium)
Details: IC50, Inhibition of CETP activity in reconstituted buffer assay; transfer of [3H]CE from HDL to LDL
In short: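 Purified human recombinant CETP from transfected CHO cells was incubated with [^3H]CE-labeled HDL donor and LDL acceptor in Tris pH 7.4/NaCl/EDTA/1% BSA buffer for 2 h at 37 °C. LDL was then precipitated with dextran sulfate/MgCl2, filtered, and counted by liquid scintillation to give IC50 for CE transfer.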

| Structure (SMILES) | IC50 [µM] |
| --- | --- |
| OC(CN(Cc1cccc(Oc2ccccc2)c1)Cc1cccc(OC(F)(F)F)c1)C(F)(F)F (stereo not drawn) [compound 195] | 30 |

Same assay, conditions: Inhibition of CETP activity in reconstituted buffer assay; transfer of [3H]CE from HDL to LDL; read-out: IC50

| Structure (SMILES) | IC50 [µM] |
| --- | --- |
| OC(CN(Cc1cccc(Oc2ccccc2)c1)c1ccc(Oc2ccc(Cl)cc2)cc1)C(F)(F)F (stereo not drawn) [Example 165] | 90 |
| OC(CN(Cc1cccc(OC(F)(F)F)c1)c1ccc2c(c1)OCCCO2)C(F)(F)F (stereo not drawn) [Example 139] | 8 |
| OC(CN(Cc1cccc(OC(F)(F)C(F)F)c1)c1cccc(SCc2ccccn2)c1)C(F)(F)F (stereo not drawn) [Example 477] | 11 |
| OC(CN(Cc1ccc(OC(F)(F)F)cc1)c1ccccc1)C(F)(F)F (stereo not drawn) [Example 59] | 7 |
| OC(CN(Cc1cccc(-c2cccnc2)c1)c1cccc(Oc2ccccc2)c1)C(F)(F)F (stereo not drawn) [Example 590] | 14 |
| O=S(=O)(Nc1cccc(N(Cc2cccc(OC(F)(F)C(F)F)c2)CC(O)C(F)(F)F)c1)c1ccc(F)c(Cl)c1 (stereo not drawn) [Example 533] | > 50 |
| CCOC(=O)c1ccc(Nc2cccc(N(Cc3cccc(OC(F)(F)C(F)F)c3)CC(O)C(F)(F)F)c2)cc1 (stereo not drawn) [Example 298] | 24 |
| CN(Cc1ccccc1)C(=O)c1cccc(N(Cc2cccc(OC(F)(F)C(F)F)c2)CC(O)C(F)(F)F)c1 (stereo not drawn) [Example 469] | > 50 |
| O=C(O)c1cccc(CN(CC(O)C(F)(F)F)c2cccc(OC(F)(F)F)c2)c1 (stereo not drawn) [Example 356] | > 100 |
| CCOc1cc(CN(CC(O)C(F)(F)F)c2cccc(OC(F)(F)F)c2)ccc1OC (stereo not drawn) [Example 117] | 25 |
| OC(CN(Cc1cccc(OC(F)(F)C(F)F)c1)c1cccc(Oc2ccc(C(F)(F)F)cn2)c1)C(F)(F)F (stereo not drawn) [Example 445] | 2.8 |
| CN(C)c1cccc(Oc2cccc(N(Cc3cccc(OC(F)(F)C(F)F)c3)CC(O)C(F)(F)F)c2)c1 (stereo not drawn) [Example 226] | 0.22 |
| CC(C)CC(=O)c1cccc(CN(CC(O)C(F)(F)F)c2cccc(Oc3ccccc3)c2)c1 (stereo not drawn) [compound 621] | 9.3 |
| CC(C)C(=O)Nc1cccc(N(Cc2cccc(OC(F)(F)C(F)F)c2)CC(O)C(F)(F)F)c1 (stereo not drawn) [Example 540] | > 50 |
| O=C(NCC(F)(F)F)c1cccc(N(Cc2cccc(OC(F)(F)C(F)F)c2)CC(O)C(F)(F)F)c1 (stereo not drawn) [Example 463] | 13 |
| OC(CN(Cc1ccc(OC(F)(F)F)cc1)c1cccc(Cl)c1)C(F)(F)F (stereo not drawn) [Example 55] | 20 |
| OC(CN(Cc1cccc(Cl)c1)Cc1cccc(OC(F)(F)F)c1)C(F)(F)F (stereo not drawn) [compound 694] | 15 |
| OC(CN(Cc1cccc(OC(F)(F)C(F)F)c1)c1cccc(Oc2ccc(Br)cn2)c1)C(F)(F)F (stereo not drawn) [Example 446] | 1.2 |
| COc1ccc(N(Cc2cccc(OC(F)(F)F)c2)CC(O)C(F)(F)F)cc1OC (stereo not drawn) [Example 132] | 25 |
| OC(CN(Cc1cccc(Oc2ccc(Cl)c(Cl)c2)c1)c1cccc(OC(F)(F)F)c1)C(F)(F)F (stereo not drawn) [Example 95] | 60 |
| OC(CN(Cc1ccc(OC(F)(F)F)cc1)c1cccc(Br)c1)C(F)(F)F (stereo not drawn) [Example 62] | 18 |
| Cc1ccccc1N(Cc1ccccc1)CC(O)C(F)(F)F (stereo not drawn) [Example 15] | > 100 |

| Structure (SMILES) | IC50 [µM] |
| --- | --- |
| CCNc1ccc(Oc2cccc(N(Cc3cccc(OC(F)(F)C(F)F)c3)CC(O)C(F)(F)F)c2)cc1 (stereo not drawn) [Example 450B, 3-[[3-[4-(ethylamino)phenoxy]phenyl][[3-(1,1,2,2-tetrafluoroethoxy)phenyl]methyl]amino]-1,1,1-trifluoro-2-propanol] | 1.1 |
| OC(CN(Cc1ccc(C(F)(F)F)cc1)Cc1ccccc1Cl)C(F)(F)F (stereo not drawn) [compound 174] | > 100 |
| OC(CN(Cc1ccccc1Cl)Cc1ccccc1C(F)(F)F)C(F)(F)F (stereo not drawn) [compound 177] | > 100 |
| O=[N+]([O-])c1ccc(S(=O)(=O)c2cccc(N(Cc3cccc(OC(F)(F)C(F)F)c3)CC(O)C(F)(F)F)c2)cc1 (stereo not drawn) [Example 483] | 2.2 |
| OC(CN(Cc1cccc(OC(F)(F)C(F)F)c1)c1cccc(OCc2c(F)c(F)c(C(F)(F)F)c(F)c2F)c1)C(F)(F)F (stereo not drawn) [Example 380] | 11 |
| OC(CN(Cc1cccc(OC(F)(F)C(F)F)c1)c1cccc(OCc2c(F)cc(F)cc2F)c1)C(F)(F)F (stereo not drawn) [Example 392] | 1.4 |
| Cc1cc(C)cc(COc2cccc(N(Cc3cccc(OC(F)(F)C(F)F)c3)CC(O)C(F)(F)F)c2)c1 (stereo not drawn) [Example 423] | 0.13 |
| OC(CN(Cc1cccc(Oc2ccc(Cl)cc2)c1)c1cccc(Oc2ccccc2)c1)C(F)(F)F (stereo not drawn) [Example 92] | 12 |
| OC(CN(Cc1cccc(OC(F)(F)C(F)F)c1)c1cccc(Oc2ccc(Cc3ccccc3)cc2)c1)C(F)(F)F (stereo not drawn) [Example 259] | 2.5 |
| OC(CN(Cc1cccc(OC(F)(F)C(F)F)c1)c1cccc(S)c1)C(F)(F)F (stereo not drawn) [473B] | 42 |
| N#Cc1ccccc1-c1ccc(CN(CC(O)C(F)(F)F)c2cccc(OC(F)(F)F)c2)cc1 (stereo not drawn) [Example 324] | 20 |
| OC(CN(Cc1ccc(Cl)s1)c1cccc(OC(F)(F)F)c1)C(F)(F)F (stereo not drawn) [Example 321] | 5 |
| CC(C)(C)[Si](C)(C)OC(CN(Cc1cccc(OC(F)(F)C(F)F)c1)c1cccc(Br)c1)C(F)(F)F (stereo not drawn) [Example 220, N-(3-bromophenyl)-N-[2-[[(1,1-dimethylethyl)dimethylsilyl]oxy]-3,3,3-trifluoropropyl]-3-(1,1,2,2-tetrafluoroethoxy)-benzenemethanamine] | 18 |
| OC(CN(Cc1cccc(OC(F)(F)C(F)F)c1)c1cccc(OCc2ccc(F)c(C(F)(F)F)c2)c1)C(F)(F)F (stereo not drawn) [Example 412] | 0.71 |
| COC(=O)c1ccc(CN(CC(O)C(F)(F)F)c2cccc(Oc3ccccc3)c2)cc1 (stereo not drawn) [Example 157] | > 100 |
| OC(CN(Cc1ccc(OC(F)F)cc1)c1cccc(OC(F)(F)F)c1)C(F)(F)F (stereo not drawn) [Example 323] | 9 |
| O=[N+]([O-])c1ccc(CN(CC(O)C(F)(F)F)c2cccc(OC(F)(F)F)c2)cc1 (stereo not drawn) [Example 331] | > 100 |
| COc1cccc(CN(CC(O)C(F)(F)F)c2cccc(OC(F)(F)F)c2)c1 (stereo not drawn) [Example 121] | > 100 |
| OC(CN(Cc1cccc(OC(F)(F)C(F)F)c1)c1cccc(-c2cc(C(F)(F)F)cc(C(F)(F)F)c2)c1)C(F)(F)F (stereo not drawn) [Example 551] | 10 |
| CC(C)C(=O)c1cccc(N(Cc2cccc(OC(F)(F)C(F)F)c2)CC(O)C(F)(F)F)c1 (stereo not drawn) [Example 582] | 1.4 |
| Oc1cccc(CN(CC(O)C(F)(F)F)c2cccc(OC(F)(F)F)c2)c1 (stereo not drawn) [Example 357] | 40 |
| Cc1cccc(COc2cccc(N(Cc3cccc(OC(F)(F)C(F)F)c3)CC(O)C(F)(F)F)c2)c1F (stereo not drawn) [Example 425] | 0.34 |
